Experimental data reported in patent publication US9084805B2, “Sialic acid to support the immune system in the elderly” (Nestec S.A., priority 2008, dated 2015).

Columns and labels:
Assay type in all cases: in vivo, C57BL/6J mice
HO-1 = experiment: Liver mRNA expression of HO-1 in aged mice (TaqMan low density array); details: 0.8 weight-% N-acetylneuraminic acid in diet for 42 days, vs non-supplemented AlN-93, n=8
Description: (§1) Specific pathogen-free male C57BL/6J mice (4-weeks old) were purchased from Janvier (France). Mice were housed under conventional circumstances (12 hours light/dark cycle, temperature 22° C., humidity 56%) and received water and semi-synthetic Kliba 3436 diet ad libitum. Until the age of 5 months, mice were maintained at 5 per cage and then they were individually caged. All conditions and handling of the animals were approved by the Nestle and state ethical committees with the agreement of the Swiss Federal Veterinary Advisor. […]
(§2) Mice were killed on day 42 of trial. The expression of genes involved in inflammatory processes was determined in the liver of aged mice that were supplemented or not with SiAc for 42 days. […]
(§3) Liver samples were transferred into 1 ml of RNA lysis buffer (Macherey-Nagel, Düren, Germany) and homogenized using Ribolyzer (Hybaid, Waltham, Mass., USA) with the following setting: power at 6 for 20 seconds. […] RNA quantification was achieved using the Ribogreen RNA Quantitation Kit (Molecular Probes; Eugene, Oreg. USA), and RNA quality was assayed using Agilent RNA 6000 Nano LabChip Kit (Agilent Technologies, Palo Alto, USA). […]

TGF-β2 = experiment: Liver mRNA expression of TGF-β2 in aged mice (TaqMan low density array); details: 0.8 weight-% N-acetylneuraminic acid in diet for 42 days, vs non-supplemented AlN-93, n=8
Description: as §1, §2, §3

aged mice = experiment: Delayed-type hypersensitivity (DTH) response, ear swelling after KLH elicitation, in aged mice; details: aged mice (19-months old), 0.8 weight-% N-acetylneuraminic acid in AlN-93 diet, vs non-supplemented AlN-93, n=10
Description: Specific pathogen-free male C57BL/6J mice (4-weeks old) were purchased from Janvier (France). Mice were housed under conventional circumstances (12 hours light/dark cycle, temperature 22° C., humidity 56%) and received water and semi-synthetic Kliba 3436 diet ad libitum. Until the age of 5 months, mice were maintained at 5 per cage and then they were individually caged. All conditions and handling of the animals were approved by the Nestle and state ethical committees with the agreement of the Swiss Federal Veterinary Advisor. 19-months old mice were randomized into 2 groups of 10 animals and were fed with a semi-synthetic AlN-93 diet either non-supplemented (group control AlN-93, n=10) or supplemented with SiAc (0.8 weight-% N-acetylneuraminic acid in the diet) (group SiAc, n=10). During the 42 days of trial, all mice were allowed to drink and eat ad libitum.
The DTH response was used as an in vivo measure of cellular immunity. […] At 24 hours post-elicitation, and during the following 5 days, both the non-elicited (left ear) and the elicited ears (right ear) were measured. DTH responses (KLH-PBS) were expressed as the magnitude of ear swelling, i.e. the change in ear thickness using the following formula: Δ in ear thickness=[elicited ear (right, KLH) ear sickness−non-elicited (left, PBS) ear sickness], where Δ in ear thickness=[post-elicitation−pre-elicitation ear thickness].

SOD2 = experiment: Liver mRNA expression of SOD2 in aged mice (TaqMan low density array); details: 0.8 weight-% N-acetylneuraminic acid in diet for 42 days, vs non-supplemented AlN-93, n=8
Description: as §1, §2, §3

CC(=O)N[C@H]1[C@H]([C@H](O)[C@H](O)CO)OC(O)(C(=O)O)C[C@@H]1O (stereo partly shown) [SiAc, N-acetylneuraminic acid]
expression of gene encoding HO-1, defence against oxidative damage (FIG. 2) (HO-1): increased expression | expression of gene encoding anti-inflammatory molecule TGF-β2 (FIG. 2) (TGF-β2): increased expression | cell-mediated immune response (DTH response, FIG. 1) (aged mice): improved | expression of gene encoding SOD2, defence against oxidative damage (FIG. 2) (SOD2): increased expression
